# Assay results from patent US20040097565A1, “Analgesic and antiinflammatory drugs” (priority 2001, published 2004).
# Marks after values point to notes of the source that are not given here.
# Columns and labels:
# [1] = test system: carrageenin edema, right rear limb plantar part of SD strain male rats; experiment: Carrageenin edema method (antiinflammatory action); type: in vivo, rat; conditions: 30 mg/kg oral, 1 hour before carrageenin, limb volume 3 hours after, relative to control
# Description: Method: SD strain male rats (6 weeks old, Nihon Clea) were used at 6 animals per group. The carrageenin edema method was performed according to a method of Winter et al. (Proc. Soc. exp. Biol. Med., 111, 544-547, 1962). After a volume of a right rear limb plantar part was measured, a specimen [compound A: 2-ethoxy-1-[[2′-(5-oxo-2,5-dihydro-1,2,4-oxadiazol-3-yl)biphenyl-4-yl]methyl]-1H benzimidazole-7-carboxylic acid] was orally administered (1 ml/100 g), and water was additionally added to a total amount of 5 ml/rat. After one hour, 0.05 ml of a 1% carrageenin physiological saline solution was subcutaneously injected to induce edema. Whereby, a volume of a right rear limb plantar part was measured after 3 hours. The effect of a specimen was obtained by a difference of a limb volume between before carrageenin injection and after 3 hours, and calculating an inhibition rate (%) relative to a control group.
# [2] = test system: acetic acid writhing in ICR strain male mice; experiment: Acetic acid writhing method (analgesic action); type: in vivo, mouse; conditions: 30 mg/kg oral, 30 minutes before 0.6% acetic acid i.p., counted for 20 minutes
# Description: Acetic Acid Writhing Method
# Method: ICR strain male mice (5 weeks old, Nihon Clea) were used at 10 animals per group, and a specimen [compound A: 2-ethocy-1-[[2′-(5-oxo-2,5-dihydro-1,2,4-oxadiazol-3-yl)biphenyl-4-yl]methyl]-1H-benzimidazole-7-carboxylic acid] was orally administered (0.2 ml/10 g). After 30 minutes, a 0.6% acetic acid solution was intraperitoneally injected (0.1 ml/10 g) and, immediately, mice were placed into a transparent acryl resin observation cage, a time of writhing and stretching induced for 20 minutes therefrom was counted, and an inhibition rate (%) was calculated from average times of a control group and a specimen administration group.
# [3] = test system: pain threshold at right rear limb plantar part of SHRSP strain male rats; experiment: Pain threshold improving action in SHRSP rat (Randall & Selitto's method); type: in vivo; conditions: for Pain threshold (g) before administration of compound A: baseline before oral administration
# Description: Pain Threshold Improving Action in SHRSP Rat (Easily Cerebral Apoplexy Developing Spontaneous Hypertension Rat)
# SHRSP strain male rats (27 weeks old, Nihon Clea, 6 animals per group) were used. […] Measurement of a pain threshold value was performed according to a Randall & Selitto's method (Arch. Int. Pharmacodyn. Ther. 111, 409-419, 1957). Immediately after therefrom, a compound A [2-ethoxy-1-[[2′-(5-oxo-2,5-dihydro-1,2,4-oxadoazol-3-yl)biphenyl-4-yl]methyl]-1H-benzimidazole-7-carboxylic acid] was orally administered (0.5 ml/100 g, b.w.) and, one hour after, a pain threshold value was measured. Only a solvent was orally administered to a control group. Regarding the effect of a specimen, drug efficacy assessment was performed by threshold pressure of a control group and a specimen administration group.
smiles,measurement,setting,value
"CCOc1nc2cccc(C(=O)O)c2n1Cc1ccc(-c2ccccc2-c2nc(=O)o[nH]2)cc1 [Compound A, 2-Ethoxy-1-[[2′-(5-oxo-2,5-dihydro-1,2,4-oxadiazol-3-yl)biphenyl-4-yl]methyl]-1H-benzimidazole-7-carboxylic acid]",Inhibition rate (%) of carrageenin edema,[1],34* %
same,Inhibition rate (%) of writhing and stretching,[2],52* %
same,Pain threshold (g) before administration of compound A,[3]; 1 mg/kg group,210 g
same,Pain threshold (g) 1 hour after administration of compound A,[3]; 1 mg/kg oral,277* g
same,Pain threshold (g) before administration of compound A,[3]; 3 mg/kg group,213 g
same,Pain threshold (g) 1 hour after administration of compound A,[3]; 3 mg/kg oral,352* g
same,Pain threshold (g) before administration of compound A,[3]; 10 mg/kg group,212 g
same,Pain threshold (g) 1 hour after administration of compound A,[3]; 10 mg/kg oral,430* g
same,Pain threshold (g) before administration of compound A,[3]; 30 mg/kg group,214 g
same,Pain threshold (g) 1 hour after administration of compound A,[3]; 30 mg/kg oral,470* g
